Assays:
[1] = biological target: T1, ATR kinase (full-length ATR) (Homo sapiens, UniProt Q13535); experiment: ATR Inhibition Assay (radioactive-phosphate incorporation); type: biochemical; settings: Ki(app); 5 nM full-length ATR, 10 μM ATP, 800 μM target peptide, 25° C.
T1 construct: in the presence of 5 nM full-length ATR
Protocol: Compounds were screened for their ability to inhibit ATR kinase using a radioactive-phosphate incorporation assay. Assays were carried out in a mixture of 50 mM Tris/HCl (pH 7.5), 10 mM MgCl2 and 1 mM DTT. Final substrate concentrations were 10 μM [γ-33P]ATP (3 mCi 33P ATP/mmol ATP, Perkin Elmer) and 800 μM target peptide (ASELPASQPQPFSAKKK (SEQ. ID NO: 1)).
Assays were carried out at 25° C. in the presence of 5 nM full-length ATR. An assay stock buffer solution was prepared containing all of the reagents listed above, with the exception of ATP and the test compound of interest. 13.5 μL of the stock solution was placed in a 96 well plate followed by addition of 2 μL of DMSO stock containing serial dilutions of the test compound (typically starting from a final concentration of 15 μM with 3-fold serial dilutions) in duplicate (final DMSO concentration 7%). The plate was pre-incubated for 10 minutes at 25° C. and the reaction initiated by addition of 15 μL [γ-33P]ATP (final concentration 10 μM).
The reaction was stopped after […] by the addition of 30 μL 0.1M phosphoric acid containing 2 mM ATP. A multiscreen phosphocellulose filter 96-well plate (Millipore, Cat no. MAPHN0B50) was pretreated with 100 μL 0.2M phosphoric acid prior to the addition of 45 μL of the stopped assay mixture. The plate was washed with 5×200 μL 0.2M phosphoric acid. After drying, 100 μL Optiphase ‘SuperMix’ liquid scintillation cocktail (Perkin Elmer) was added to the well prior to scintillation counting (1450 Microbeta Liquid Scintillation Counter, Wallac).
After removing mean background values for all of the data points, Ki(app) data were calculated from non-linear regression analysis of the initial rate data using the Prism software package (GraphPad Prism version 3.0cx for Macintosh, GraphPad Software, San Diego Calif., USA).

[2] = tested on: HCT116 colorectal cancer cells; experiment: Cisplatin Sensitization Assay (96 h cell viability MTS); type: cell-based; settings: concentration of compound required to reduce the IC50 of Cisplatin alone by at least 3-fold; HCT116, 96 h MTS
Protocol: Compounds can be screened for their ability to sensitize HCT116 colorectal cancer cells to Cisplatin using a 96 h cell viability (MTS) assay. […] Compounds and Cisplatin are then both added simultaneously to the cell media in 2-fold serial dilutions from a top final concentration of 10 μM as a full matrix of concentrations in a final cell volume of 200 μl, and the cells are then incubated at 37° C. in 5% CO2. After 96 h, 40 μl of MTS reagent (Promega G358a) is added to each well and the cells are incubated for 1 h at 37° C. in 5% CO2. Finally, absorbance is measured at 490 nm using a SpectraMax Plus 384 reader (Molecular Devices) and the concentration of compound required to reduce the IC50 of Cisplatin alone by at least 3-fold (to 1 decimal place) can be reported.

T1 sequence (Q13535 whole entry): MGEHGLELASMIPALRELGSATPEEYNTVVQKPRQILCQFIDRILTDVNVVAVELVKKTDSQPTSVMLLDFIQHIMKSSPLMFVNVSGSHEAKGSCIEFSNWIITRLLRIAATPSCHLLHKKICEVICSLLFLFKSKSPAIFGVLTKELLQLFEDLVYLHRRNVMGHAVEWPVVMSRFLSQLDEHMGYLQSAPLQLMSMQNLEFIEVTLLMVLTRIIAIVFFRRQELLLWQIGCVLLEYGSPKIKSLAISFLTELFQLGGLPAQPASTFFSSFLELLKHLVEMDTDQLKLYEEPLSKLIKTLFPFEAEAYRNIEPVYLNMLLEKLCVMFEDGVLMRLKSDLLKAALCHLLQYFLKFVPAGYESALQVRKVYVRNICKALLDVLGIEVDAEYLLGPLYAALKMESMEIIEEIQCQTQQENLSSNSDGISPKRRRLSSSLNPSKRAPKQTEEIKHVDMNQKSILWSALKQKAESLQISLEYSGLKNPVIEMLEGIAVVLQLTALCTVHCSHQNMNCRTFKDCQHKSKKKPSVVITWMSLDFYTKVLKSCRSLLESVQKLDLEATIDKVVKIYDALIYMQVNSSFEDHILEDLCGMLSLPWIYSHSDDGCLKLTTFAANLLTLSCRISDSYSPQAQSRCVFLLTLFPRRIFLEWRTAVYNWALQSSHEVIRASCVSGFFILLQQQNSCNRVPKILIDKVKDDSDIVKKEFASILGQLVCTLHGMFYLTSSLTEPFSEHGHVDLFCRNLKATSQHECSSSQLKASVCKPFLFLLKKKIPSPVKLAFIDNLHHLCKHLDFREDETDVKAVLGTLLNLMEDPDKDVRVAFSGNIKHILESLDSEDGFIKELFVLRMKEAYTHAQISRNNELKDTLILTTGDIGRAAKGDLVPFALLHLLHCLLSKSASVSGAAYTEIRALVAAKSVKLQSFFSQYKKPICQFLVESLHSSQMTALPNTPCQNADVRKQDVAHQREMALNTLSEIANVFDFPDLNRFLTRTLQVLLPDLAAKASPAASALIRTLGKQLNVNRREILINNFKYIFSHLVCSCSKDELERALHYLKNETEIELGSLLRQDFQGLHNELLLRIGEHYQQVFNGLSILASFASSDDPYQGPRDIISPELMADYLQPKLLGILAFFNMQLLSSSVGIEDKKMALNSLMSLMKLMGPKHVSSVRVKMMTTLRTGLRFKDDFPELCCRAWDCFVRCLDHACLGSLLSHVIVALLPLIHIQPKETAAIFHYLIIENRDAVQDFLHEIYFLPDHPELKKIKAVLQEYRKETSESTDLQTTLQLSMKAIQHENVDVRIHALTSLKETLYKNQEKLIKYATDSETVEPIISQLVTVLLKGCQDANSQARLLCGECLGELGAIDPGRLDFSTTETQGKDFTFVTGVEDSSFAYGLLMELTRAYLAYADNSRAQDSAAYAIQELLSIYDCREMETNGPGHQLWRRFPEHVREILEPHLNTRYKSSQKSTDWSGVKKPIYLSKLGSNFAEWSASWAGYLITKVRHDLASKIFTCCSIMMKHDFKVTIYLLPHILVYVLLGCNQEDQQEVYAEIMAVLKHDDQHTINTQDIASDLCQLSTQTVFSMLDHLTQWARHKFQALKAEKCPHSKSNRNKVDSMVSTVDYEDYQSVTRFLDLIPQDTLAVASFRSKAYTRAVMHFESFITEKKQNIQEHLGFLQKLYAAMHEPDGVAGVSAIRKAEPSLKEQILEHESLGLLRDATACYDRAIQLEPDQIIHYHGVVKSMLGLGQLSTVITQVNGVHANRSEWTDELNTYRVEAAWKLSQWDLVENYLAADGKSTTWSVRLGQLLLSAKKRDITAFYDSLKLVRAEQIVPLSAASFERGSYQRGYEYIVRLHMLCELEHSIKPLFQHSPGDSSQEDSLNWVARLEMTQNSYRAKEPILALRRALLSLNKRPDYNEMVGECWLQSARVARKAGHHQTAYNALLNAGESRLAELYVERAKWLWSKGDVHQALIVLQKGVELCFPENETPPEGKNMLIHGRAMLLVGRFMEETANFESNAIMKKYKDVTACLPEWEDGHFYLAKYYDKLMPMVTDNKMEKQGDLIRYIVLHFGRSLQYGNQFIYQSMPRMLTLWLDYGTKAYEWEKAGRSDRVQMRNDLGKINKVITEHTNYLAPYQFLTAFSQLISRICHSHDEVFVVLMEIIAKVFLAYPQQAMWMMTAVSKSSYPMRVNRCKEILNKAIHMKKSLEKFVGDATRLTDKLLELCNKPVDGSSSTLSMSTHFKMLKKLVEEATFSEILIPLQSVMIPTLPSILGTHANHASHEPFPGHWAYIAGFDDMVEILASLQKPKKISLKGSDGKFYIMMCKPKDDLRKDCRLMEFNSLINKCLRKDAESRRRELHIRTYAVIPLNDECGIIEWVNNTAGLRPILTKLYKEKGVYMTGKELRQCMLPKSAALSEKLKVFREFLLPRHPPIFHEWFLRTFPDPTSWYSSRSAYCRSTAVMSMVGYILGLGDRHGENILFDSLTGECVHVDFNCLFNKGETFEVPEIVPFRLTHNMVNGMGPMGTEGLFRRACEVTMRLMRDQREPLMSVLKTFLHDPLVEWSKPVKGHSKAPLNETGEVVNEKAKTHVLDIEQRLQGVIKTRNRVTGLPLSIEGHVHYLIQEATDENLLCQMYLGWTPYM

| Compound | Ki [1] | Cisplatin Sensitization Assay [2] |
| --- | --- | --- |
| CN1CCN(c2cnccc2NC(=O)c2c(N)nn3cc(F)cnc23)CC1 [I-C-2, 2-amino-6-fluoro-N-(3-(4-methylpiperazin-1-yl)pyridin-4-yl)pyrazolo[1,5-a]pyrimidine-3-carboxamide] | 0.01 to 1 µM | ++ (Compounds with a Cisplatin sensitization value >0.02 μM but <0.2 μM are marked with “++.”) |
| CN1CCN(C(=O)C2CCN(c3cnccc3NC(=O)c3c(N)nn4cc(F)cnc34)CC2)CC1 [I-C-3, 2-amino-6-fluoro-N-(3-(4-(4-methylpiperazine-1-carbonyl)piperidin-1-yl)pyridin-4-yl)pyrazolo[1,5-a]pyrimidine-3-carboxamide] | 0.01 to 1 µM | ++ (Compounds with a Cisplatin sensitization value >0.02 μM but <0.2 μM are marked with “++.”) |
| Cc1ncccc1-c1cnccc1NC(=O)c1c(N)nn2cc(F)cnc12 [I-C-5, 2-amino-6-fluoro-N-(2′-methyl-[3,3′-bipyridin]-4-yl)pyrazolo[1,5-a]pyrimidine-3-carboxamide] | 0.01 to 1 µM | ++ (Compounds with a Cisplatin sensitization value >0.02 μM but <0.2 μM are marked with “++.”) |
| Cc1cnccc1-c1cnccc1NC(=O)c1c(N)nn2cc(F)cnc12 [I-C-6, 2-amino-6-fluoro-N-(3′-methyl-[3,4′-bipyridin]-4-yl)pyrazolo[1,5-a]pyrimidine-3-carboxamide] | 0.01 to 1 µM | ++ (Compounds with a Cisplatin sensitization value >0.02 μM but <0.2 μM are marked with “++.”) |
| Nc1nn2cc(F)cnc2c1C(=O)Nc1ccncc1N1CCC(C(=O)N2CCN3CCC2CC3)CC1 [I-C-7, N-(3-(4-(1,4-diazabicyclo[3.2.2]nonane-4-carbonyl)piperidin-1-yl)pyridin-4-yl)-2-amino-6-fluoropyrazolo[1,5-a]pyrimidine-3-carboxamide] | 0.01 to 1 µM | +++ (Compounds with a Cisplatin sensitization value of <0.02 μM are marked with “+++.”) |
| Nc1nn2cc(F)cnc2c1C(=O)Nc1ccncc1N1CCC(C(=O)N2CCC(N3CCCC3)CC2)CC1 [I-C-8, 2-amino-6-fluoro-N-(3-(4-(4-(pyrrolidin-1-yl)piperidine-1-carbonyl)piperidin-1-yl)pyridin-4-yl)pyrazolo[1,5-a]pyrimidine-3-carboxamide] | 0.01 to 1 µM | +++ (Compounds with a Cisplatin sensitization value of <0.02 μM are marked with “+++.”) |
| Nc1nn2cc(F)cnc2c1C(=O)Nc1ccncc1N1CCC(C(=O)N2CCN(C3COC3)CC2)CC1 [I-C-9, 2-amino-6-fluoro-N-(3-(4-(4-(oxetan-3-yl)piperazine-1-carbonyl)piperidin-1-yl)pyridin-4-yl)pyrazolo[1,5-a]pyrimidine-3-carboxamide] | 0.01 to 1 µM | ++ (Compounds with a Cisplatin sensitization value >0.02 μM but <0.2 μM are marked with “++.”) |
| CS(=O)(=O)C1CCN(c2cnccc2NC(=O)c2c(N)nn3cc(F)cnc23)CC1 [I-C-10, 2-amino-6-fluoro-N-(3-(4-(methylsulfonyl)piperidin-1-yl)pyridin-4-yl)pyrazolo[1,5-a]pyrimidine-3-carboxamide] | < 0.01 µM | +++ (Compounds with a Cisplatin sensitization value of <0.02 μM are marked with “+++.”) |
| Nc1nn2cc(F)cnc2c1C(=O)Nc1ccncc1N1CCCC1 [I-C-11, 2-amino-6-fluoro-N-(3-(pyrrolidin-1-yl)pyridin-4-yl)pyrazolo[1,5-a]pyrimidine-3-carboxamide] | 0.01 to 1 µM | ++ (Compounds with a Cisplatin sensitization value >0.02 μM but <0.2 μM are marked with “++.”) |
| N#CCc1cnc2c(C(=O)Nc3cncn3Cc3ccccc3)c(N)nn2c1 [I-D-1, 2-amino-N-(1-benzyl-1H-imidazol-5-yl)-6-(cyanomethyl)pyrazolo[1,5-a]pyrimidine-3-carboxamide] | < 0.01 µM | +++ (Compounds with a Cisplatin sensitization value of <0.02 μM are marked with “+++.”) |
| Nc1nn2cc(F)cnc2c1C(=O)Nc1cncn1-c1ccccc1 [I-D-2, 2-amino-6-fluoro-N-(1-phenyl-1H-imidazol-5-yl)pyrazolo[1,5-a]pyrimidine-3-carboxamide] | 0.01 to 1 µM | +++ (Compounds with a Cisplatin sensitization value of <0.02 μM are marked with “+++.”) |
| Nc1nn2cc(F)cnc2c1C(=O)Nc1cncn1C1CC1 [I-D-3, 2-amino-N-(1-cyclopropyl-1H-imidazol-5-yl)-6-fluoropyrazolo[1,5-a]pyrimidine-3-carboxamide] | 0.01 to 1 µM | +++ (Compounds with a Cisplatin sensitization value of <0.02 μM are marked with “+++.”) |
| Nc1nn2cc(F)cnc2c1C(=O)Nc1cncn1C1CCOCC1 [I-D-4, 2-amino-6-fluoro-N-(1-(tetrahydro-2H-pyran-4-yl)-1H-imidazol-5-yl)pyrazolo[1,5-a]pyrimidine-3-carboxamide] | 0.01 to 1 µM | ++ (Compounds with a Cisplatin sensitization value >0.02 μM but <0.2 μM are marked with “++.”) |
| Nc1nn2cc(F)cnc2c1C(=O)Nc1cncn1-c1cccnc1 [I-D-5, 2-amino-6-fluoro-N-(1-(pyridin-3-yl)-1H-imidazol-5-yl)pyrazolo[1,5-a]pyrimidine-3-carboxamide] | 0.01 to 1 µM | ++ (Compounds with a Cisplatin sensitization value >0.02 μM but <0.2 μM are marked with “++.”) |
| Cc1ncc(NC(=O)c2c(N)nn3cc(F)cnc23)n1-c1ccccc1 [I-D-6, 2-amino-6-fluoro-N-(2-methyl-1-phenyl-1H-imidazol-5-yl)pyrazolo[1,5-a]pyrimidine-3-carboxamide] | 0.01 to 1 µM | +++ (Compounds with a Cisplatin sensitization value of <0.02 μM are marked with “+++.”) |
| Cc1ncccc1-c1c(C)nsc1NC(=O)c1c(N)nn2cc(F)cnc12 [I-E-1, 2-amino-6-fluoro-N-(3-methyl-4-(2-methylpyridin-3-yl)isothiazol-5-yl)pyrazolo[1,5-a]pyrimidine-3-carboxamide] | < 0.01 µM | +++ (Compounds with a Cisplatin sensitization value of <0.02 μM are marked with “+++.”) |
| Cc1nsc(NC(=O)c2c(N)nn3cc(F)cnc23)c1C1CC1 [I-E-2, 2-amino-N-(4-cyclopropyl-3-methylisothiazol-5-yl)-6-fluoropyrazolo[1,5-a]pyrimidine-3-carboxamide] | 0.01 to 1 µM | +++ (Compounds with a Cisplatin sensitization value of <0.02 μM are marked with “+++.”) |
| Cc1nsc(NC(=O)c2c(N)nn3cc(F)cnc23)c1-c1cccnc1 [I-E-3, 2-amino-6-fluoro-N-(3-methyl-4-(pyridin-3-yl)isothiazol-5-yl)pyrazolo[1,5-a]pyrimidine-3-carboxamide] | 0.01 to 1 µM | +++ (Compounds with a Cisplatin sensitization value of <0.02 μM are marked with “+++.”) |
| Cc1nsc(NC(=O)c2c(N)nn3cc(F)cnc23)c1C1=CCOCC1 [I-E-4, 2-amino-N-(4-(3,6-dihydro-2H-pyran-4-yl)-3-methylisothiazol-5-yl)-6-fluoropyrazolo[1,5-a]pyrimidine-3-carboxamide] | < 0.01 µM | +++ (Compounds with a Cisplatin sensitization value of <0.02 μM are marked with “+++.”) |
| Cc1nsc(NC(=O)c2c(N)nn3cc(F)cnc23)c1C1=CCN(C)CC1 [I-E-5, 2-amino-6-fluoro-N-(3-methyl-4-(1-methyl-1,2,3,6-tetrahydropyridin-4-yl)isothiazol-5-yl)pyrazolo[1,5-a]pyrimidine-3-carboxamide] | 0.01 to 1 µM | +++ (Compounds with a Cisplatin sensitization value of <0.02 μM are marked with “+++.”) |
| Cc1nsc(NC(=O)c2c(N)nn3cc(F)cnc23)c1-c1cncn1C [I-E-6, 2-amino-6-fluoro-N-(3-methyl-4-(1-methyl-1H-imidazol-5-yl)isothiazol-5-yl)pyrazolo[1,5-a]pyrimidine-3-carboxamide] | 0.01 to 1 µM | +++ (Compounds with a Cisplatin sensitization value of <0.02 μM are marked with “+++.”) |

From patent US8957078B2, “Compounds useful as inhibitors of ATR kinase” (Vertex Pharmaceuticals Incorporated, priority 2013, dated 2015)
